Laboratory results published in patent US9238005B2, “Dry powder formulations and methods for treating pulmonary diseases” (Pulmatrix Operating Company, Inc., priority 2009, dated 2016).

What was measured:
[1] = Volume median geometric diameter (x50/VMGD) and GSD by laser diffraction, HELOS/RODOS; type: physicochemical
Method: Volume median diameter (×50), which may also be referred to as volume median geometric diameter (VMGD), was determined using a laser diffraction technique. […] The RODOS disperser applies a shear force to a sample of particles, controlled by the regulator pressure (typically set at 1.0 bar with orifice ring pressure set at 7 mbar) of the incoming compressed dry air. […] The dispersed particles travel through a laser beam where the resulting diffracted light pattern produced is collected, typically using an R2 lens, by a series of detectors.

[2] = Fine particle fraction, two-stage collapsed Andersen Cascade Impactor (ACI-2); details: spray dried from 70% ethanol, 50 g/L
[3] = Heat of solution in HBSS buffer; type: physicochemical; details: Avg.; for ΔH (kJ/mol) / ΔH (kcal/mol): HBSS buffer, per mol Ca, leucine per mol Leu; for Q / ΔT (deg. C): dissolution in HBSS buffer
[4] = Dispersibility from passive dry powder inhalers (CEPM, Dv50, FPF vs inhalation energy); type: physicochemical; details: for average CEPM, share of capsule fill weight: 9.2 Joules (60 L/min for 2 L); for average Dv50: 9.2 Joules; for Dv50: measured lower energies
Method: The dispersibility of various powder formulations was investigated by measuring the geometric particle size and the percentage of powder emitted from capsules when inhaling on dry powder inhalers with flow rates representative of patient use. The particle size distribution and weight change of the filled capsules were measured for multiple powder formulations as a function of flow rate, inhaled volume and fill weight in 2 passive dry powder inhalers.
In order to relate the dispersion of powder at different flow rates, volumes, and from inhalers of different resistances, the energy required to perform the inhalation maneuver was calculated and the particle size and dose emission data plotted against the inhalation energy. Inhalation energy was calculated as E=R^2Q^2V where E is the inhalation energy in Joules, R is the inhaler resistance in kPa^1/2/LPM, Q is the steady flow rate in L/min and V is the inhaled air volume in L.

[5] = high resistance RS-01, 25 mg fill weight
[6] = high resistance RS-01, 40 mg fill weight
[7] = RS.01.HR, fill 25 mg, 15 LPM, 4 s, 0.29 J
[8] = RS.01.HR, fill 25 mg, 20 LPM, 3 s, 0.51 J
[9] = RS.01.HR, fill 25 mg, 30 LPM, 2 s, 1.15 J
[10] = RS.01.HR, fill 25 mg, 60 LPM, 2 s, 9.18 J
[11] = RS.01.HR, fill 40 mg, 15 LPM, 4 s, 0.29 J
[12] = RS.01.HR, fill 40 mg, 20 LPM, 3 s, 0.51 J
[13] = RS.01.HR, fill 40 mg, 30 LPM, 2 s, 1.15 J
[14] = RS.01.HR, fill 40 mg, 60 LPM, 2 s, 9.18 J
[15] = RS.01.LR, fill 25 mg, 60 LPM, 2 s, 2.85 J
[16] = RS.01.LR, fill 40 mg, 60 LPM, 2 s, 2.85 J
[17] = all measured lower energies (<9.2 Joules), 25 and 40 mg fill weights

With `[Cl-].[Cl-].[Mg+2]` [Pure magnesium chloride, magnesium chloride] the “median volume particle size” value ([1]; spray dried from 70% ethanol, 50 g/L) was 4 microns, the “median particle size (HELOS/RODOS)” value ([1]; spray dried from D.I. water, 20 g/L) was 21 microns and the “fine particle fraction less than 5.6 microns” value [2] was 19%.
In the case of `O.O.[Ca+2].[Cl-].[Cl-]` [CaCl2.2H2O], the “ΔH (kJ/mol)” value [3] is reported as -50.6 kJ/mol, the “ΔH (kcal/mol)” value [3] is reported as -12.1 kcal/mol and the “Q” value [3] is reported as 2.93 cal. For the same molecule, the “ΔT (deg. C)” value [3] was 0.024 deg. C.
In the case of “albuterol sulfate [Micronized Albuterol 073-001-02-039A]”, the “average CEPM, share of capsule fill weight” value [4, 5] is reported as 93%, the “average CEPM, share of capsule fill weight” value [4, 6] is reported as 84% and the “average Dv50” value [4, 5] is reported as 1.8 μm. For the same molecule, the “average Dv50” value [4, 6] was 1.6 μm, the “Mean CEPM” value [4, 7] was 3.12 mg and the “Mean Dv50” value [4, 7] was 16.76 μm. The “Mean FPF, % < 5 μm” value [4, 7] was 13.00%, the “Mean CEPM” value [4, 8] was 5.00 mg and the “Mean Dv50” value [4, 8] was 8.40 μm. For the same molecule, the “Mean FPF, % < 5 μm” value [4, 8] was 32.10%, the “Mean CEPM” value [4, 9] was 7.08 mg and the “Mean Dv50” value [4, 9] was 3.86 μm. The “Mean FPF, % < 5 μm” value [4, 9] was 59.44%, the “Mean CEPM” value [4, 10] was 23.18 mg and the “Mean Dv50” value [4, 10] was 1.77 μm. For the same molecule, the “Mean FPF, % < 5 μm” value [4, 10] was 81.65%, the “Mean CEPM” value [4, 11] was 2.43 mg and the “Mean Dv50” value [4, 11] was 17.63 μm. The “Mean FPF, % < 5 μm” value [4, 11] was 10.73%, the “Mean CEPM” value [4, 12] was 4.97 mg and the “Mean Dv50” value [4, 12] was 6.34 μm. For the same molecule, the “Mean FPF, % < 5 μm” value [4, 12] was 42.24%, the “Mean CEPM” value [4, 13] was 8.55 mg and the “Mean Dv50” value [4, 13] was 3.13 μm. For the same molecule, the “Mean FPF, % < 5 μm” value [4, 13] was 67.18%, the “Mean CEPM” value [4, 14] was 33.40 mg and the “Mean Dv50” value [4, 14] was 1.60 μm. For the same molecule, the “Mean FPF, % < 5 μm” value [4, 14] was 84.30%, the “Mean CEPM” value [4, 15] was 15.28 mg and the “Mean Dv50” value [4, 15] was 2.57 μm. The “Mean FPF, % < 5 μm” value [4, 15] was 75.01%, the “Mean CEPM” value [4, 16] was 18.88 mg and the “Mean Dv50” value [4, 16] was 2.62 μm. The “Mean FPF, % < 5 μm” value [4, 16] was 73.98%, the CEPM [4, 17] was “below 10 mg” and the “CEPM, share of capsule fill weight” value [4, 17] was under 30%. It also gave a Dv50 ([4]; 25 mg fill weight) of 3.9 μm and a Dv50 ([4]; 40 mg fill weight) of 3.1 μm.
In the case of `CC(C)C[C@H](N)C(=O)O` [Leucine], the “ΔH (kJ/mol)” value [3] is reported as -6 kJ/mol, the “ΔH (kcal/mol)” value [3] is reported as -1.5 kcal/mol and the “Q” value [3] is reported as 0.37 cal. For the same molecule, the “ΔT (deg. C)” value [3] was 0.003 deg. C.
